US10610504B2, “Alpha-cell re-generation combined with conversion to beta cells” (INSERM (INSTITUT NATIONAL DE LA SANTÉ ET DE LA RECHERCHE …, priority 2014, dated 2020)

What was measured:
[1] = system: insulin+ cells (beta cells); test: Immunohistochemical characterisation of pancreata, GABA and Glu001 combination study; type: in vivo, mice; conditions: 3-month old WT animals treated for a month, daily IP; vs saline
Description: To determine if the combination of GABA and Glu001 could increase beta-cell mass wild type mice were treated with 1) saline, 2) GABA (daily IP injections of 50 μM/40 g mouse), 3) Glu001 (daily IP injections of 4 mg/kg) and 4) GABA+Glu001.

beta-like cells = conditions: upon GABA administration, as mentioned in WO14048788; cited from earlier work

In the case of `NCCCC(=O)O` [GABA, gamma-amino butyric acid], the “insulin+ cell count / beta cell mass” value [1] is given as “expected increase” and the beta-like cell number (beta-like cells) is given as “progressive increase”.
